60 compounds from ChEMBL document CHEMBL4765411, “Discovery of 2-(2-aminobenzo[d]thiazol-6-yl) benzo[d]oxazol-5-amine derivatives that regulated HPV relevant cellular pathway and prevented cervical cancer from abnormal proliferation” (Eur J Med Chem, 2020) can be followed below.

The first experiment deals with HeLa. Put plainly: Antiproliferative activity against human HeLa cells assessed as reduction in cell viability after 72 hrs by SRB assay. The class given is functional, cell-based.
Settings: not given
Turning to `Nc1nc2ccc(-c3nc4ccccc4o3)cc2s1`, the IC50 is 0.82 µM.
The same measure, in the same setting: in the case of `c1ccc2oc(-c3ccc4ncsc4c3)nc2c1` it was 6 µM; in that of `Nc1ccc2oc(-c3ccc4ncsc4c3)nc2c1`, 7.08 µM.

The next experiment has as its system HeLa. In words: Antiproliferative activity against human HeLa cells assessed as growth inhibition at 1 uM viability after 72 hrs by SRB assay relative to control. The class given is functional. Particulars: read-out: GI.
Take `CCNC(=O)Nc1ccc2oc(-c3ccc4nc(N)sc4c3)nc2c1`: the inhibition of growth at 1 µM came out at 0.7%.
In the case of `Nc1nc2ccc(-c3nc4ccccc4o3)cc2s1`, the inhibition of growth at 1 µM was determined as 59.6%.
On the same count and under the same terms, the figure for `c1ccc2oc(-c3ccc4ncsc4c3)nc2c1` is 17.6%.
Same read-out and setting: the figure for `Nc1ccc2oc(-c3ccc4ncsc4c3)nc2c1` is 20.3%.

The subject of the next experiment is HeLa. Put plainly: Antiproliferative activity against human HeLa cells assessed as growth inhibition at 20 uM viability after 72 hrs by SRB assay relative to control. The class given is functional. Conditions: read-out: GI.
As for `Nc1ccc2oc(-c3ccccc3)nc2c1`, the inhibition of growth at 20 µM is -2.3%.
On the same count and under the same terms, the figure for `Oc1c(Br)cc(Br)cc1-c1nc2ccccc2s1` is 4%; for `Clc1ccccc1-c1nc2ccccc2s1` it is 4.9%; for `Nc1ccc2sc(N)nc2c1` it is 9.6%.
Take `COc1ccc(-c2nc3ccccc3s2)cc1`: the inhibition of growth at 20 µM amounted to 0.1%.
The same measure, in the same setting: in the case of `Nc1nc2ccc([N+](=O)[O-])cc2s1` it was 6%.
On to `Nc1ccc2nc(N)sc2c1`, for which the inhibition of growth at 20 µM stood at 6.9%.
The same measure, in the same setting: the figure for `Sc1nc2ccccc2s1` [2-MERCAPTOBENZOTHIAZOLE] is 7.9%; for `Nc1ccc(Br)cc1-c1nc2ccccc2s1` it is 0.8%; for `O=S(=O)(O)c1nc2ccccc2s1` it is 25%.
Same read-out and setting: the figure for `Nc1ccc(-c2nc3ccccc3[nH]2)cc1` is 1.9%.
The same measure, in the same setting: the figure for `CCNC(=O)Nc1ccc2oc(-c3ccc4nc(N)sc4c3)nc2c1` is 6.8%; for `Nc1ccc2nn(-c3ccccc3)nc2c1` it is 53%.
As to `CC[n+]1ccccc1-c1nc2ccccc2s1`, the inhibition of growth at 20 µM was 2.1%.
Regarding `O=C(Nc1nc2ccccc2s1)c1c(Cl)cccc1Cl`, the inhibition of growth at 20 µM was found to be 3.5%.
On the same count and under the same terms, the figure for `Nc1ccc2oc(-c3ccccc3F)nc2c1` is 42.4%.
Same read-out and setting: the figure for `Nc1cccc(-c2nc3ccccc3[nH]2)c1` is 0%; for `CCOc1ccc(-c2nc3cc(N)ccc3o2)cc1` it is 5.8%; for `O=[N+]([O-])c1cccc(-c2nc3ccccc3s2)c1` it is 4.4%.
In the case of `Nc1nc2c(Br)cccc2s1`, the inhibition of growth at 20 µM was 1.7%.
Consider `Nc1ccc2oc(-c3ccc(Cl)cc3Cl)nc2c1`, for which the inhibition of growth at 20 µM worked out at 6%.
Same read-out and setting: in the case of `C[n+]1ccccc1-c1nc2ccccc2s1` it was 1.2%; in that of `Nc1ccc(O)c(-n2nc3ccc(N)cc3n2)c1`, 7.1%; in that of `Nc1ccc(-c2nc3cc(N)ccc3o2)cc1`, 1.2%.
Regarding `Nc1nc2ccc(-c3nc4ccccc4o3)cc2s1`, the inhibition of growth at 20 µM came out at 67.2%.
Same read-out and setting: in the case of `O=C(Nc1nc2ccccc2s1)c1cccnc1Cl` it was 5.5%; in that of `N#Cc1ccc(-c2nc3ccccc3s2)cc1`, 10.8%; in that of `Clc1ccc(-c2nc3ccccc3s2)c(Cl)c1`, 0.3%.
The same measure, in the same setting: the figure for `Cc1nc(-c2nc3ccccc3s2)n[nH]1` is 6.6%.
On to `c1ccc(-c2nc3ccccc3s2)cc1` [2-PHENYLBENZO[D]THIAZOLE], for which the inhibition of growth at 20 µM worked out at 2.6%.
For the compound `COc1ccc(-c2nc3cc(N)ccc3o2)cc1`, the inhibition of growth at 20 µM came out at 42.6%.
With `Nc1ccc2oc(-c3cccnc3)nc2c1`, the inhibition of growth at 20 µM is 1.3%.
Still for that read-out and setting: in the case of `Nc1nc2ccccc2[nH]1` it was 1.1%.
Same read-out and setting: the figure for `Nc1nc2ccc(-c3nc4ccccc4s3)cc2s1` is 47.8%.
Same read-out and setting: in the case of `COc1ccc2nc(N)sc2c1` it was -3.4%; in that of `Nc1ccc2oc(-c3cc(I)ccc3Cl)nc2c1`, 26.5%; in that of `COc1ccc2sc(N)nc2c1`, 12.2%.
As for `c1ccc2oc(-c3ccc4ncsc4c3)nc2c1`, the inhibition of growth at 20 µM is 49.2%.
The same measure, in the same setting: the figure for `FC(F)(F)c1ccc(-c2nc3ccccc3s2)nn1` is 9.7%.
Still for that read-out and setting: in the case of `Nc1cccc(-c2nc3ccccc3s2)c1` it was 1.7%; in that of `C[S+]([O-])c1ccc2nc(N)sc2c1` (configuration not stated), 9.1%.
Same read-out and setting: in the case of `c1cncc(-c2nc3ccccc3s2)c1` it was 4.4%; in that of `Nc1ccc(-c2nc3ccccc3o2)cc1`, 19.3%; in that of `c1ccc(-c2nc3ccccc3[nH]2)nc1`, 2.5%.
Consider `Cc1nc2cc(N)ccc2s1`, for which the inhibition of growth at 20 µM stood at 6.1%.
Still for that read-out and setting: in the case of `Nc1ccc2nc(-c3ccccc3)oc2c1` it was -0.7%; in that of `O=[N+]([O-])c1ccc(-c2nc3cc([N+](=O)[O-])ccc3o2)cc1`, 3.8%.
Same read-out and setting: in the case of `Nc1ccc2oc(-c3ccc4ncsc4c3)nc2c1` it was 58%.
On the same count and under the same terms, the figure for `Nc1ccc(-c2nc3cc(N)ccc3[nH]2)cc1` is 4%; for `Nc1nc2cccc(Cl)c2s1` it is 5.3%; for `Nc1ccc(-c2nc3ccccc3[nH]2)c(N)c1` it is 0.2%.
For the compound `COc1ccc(-c2nc3cc(N)ccc3o2)cc1OC`, the inhibition of growth at 20 µM came to 2.3%.
As to `COc1cccc2sc(N)nc12`, the inhibition of growth at 20 µM amounted to 0.6%.
Turning to `Nc1ccc2oc(-c3cc(Cl)ccc3Cl)nc2c1`, the inhibition of growth at 20 µM was -0.2%.
`Brc1ccc(-c2nc3ccccc3s2)cc1`: the inhibition of growth at 20 µM was found to be 5.5%.
Still for that read-out and setting: the figure for `Oc1ccccc1-c1nc2ccccc2s1` is 8.1%; for `Nc1cc(N)cc(-c2nc3ccccc3[nH]2)c1` it is 34.5%.
On the same count and under the same terms, in the case of `CN(C)c1ccc(-c2nc3cc(N)ccc3o2)cc1` it was 8.9%; in that of `Brc1cccc(-c2nc3ccccc3s2)c1`, 2.6%.
Still for that read-out and setting: the figure for `Nc1ccc2oc(-c3cccc4c(Br)cccc34)nc2c1` is 13.8%.
